Results reported in ChEMBL document CHEMBL4837181 (Eur J Med Chem, 2020).
Values belong to the compound of their own block, whether it stands above or below them.

Columns and labels:
[1] = Oral bioavailability in male cynomolgus monkey at 275 micromol/kg; type: ADME, organism-based, Macaca fascicularis; conditions: in vivo, at 275 µmol/kg
[2] = Inhibition of P-gp transporter activity in MDR1-MDCK2 cells; type: cell-based, Canis lupus familiaris; conditions: mdckii-mdr1
[3] = Drug metabolism in cynomolgus monkey assessed as ratio of indoximod to parent compound at 15 mg/kg, iv administered as single dose; type: ADME, organism-based, Macaca fascicularis; conditions: in vivo
[4] = Drug metabolism in CD1 mouse hepatocytes assessed as unmetabolized compound at 10 uM incubated for 120 mins by UPLC-QTOF-PDA analysis; type: ADME, cell-based, Hepatocyte; conditions: read-out: Drug metabolism
[5] = Solubility in simulated gastric fluid; type: physicochemical
[6] = Toxicity in rat assessed as change in behavioral parameter; conditions: in vivo
Cytochrome P450 3A4 = Cytochrome P450 3A4 (Homo sapiens, UniProt P08684); assay: Direct inhibition of CYP3A4 in human hepatocytes; type: ADME, cell-based, Hepatocyte
Cytochrome P450 3A4, sequence (P08684 whole entry): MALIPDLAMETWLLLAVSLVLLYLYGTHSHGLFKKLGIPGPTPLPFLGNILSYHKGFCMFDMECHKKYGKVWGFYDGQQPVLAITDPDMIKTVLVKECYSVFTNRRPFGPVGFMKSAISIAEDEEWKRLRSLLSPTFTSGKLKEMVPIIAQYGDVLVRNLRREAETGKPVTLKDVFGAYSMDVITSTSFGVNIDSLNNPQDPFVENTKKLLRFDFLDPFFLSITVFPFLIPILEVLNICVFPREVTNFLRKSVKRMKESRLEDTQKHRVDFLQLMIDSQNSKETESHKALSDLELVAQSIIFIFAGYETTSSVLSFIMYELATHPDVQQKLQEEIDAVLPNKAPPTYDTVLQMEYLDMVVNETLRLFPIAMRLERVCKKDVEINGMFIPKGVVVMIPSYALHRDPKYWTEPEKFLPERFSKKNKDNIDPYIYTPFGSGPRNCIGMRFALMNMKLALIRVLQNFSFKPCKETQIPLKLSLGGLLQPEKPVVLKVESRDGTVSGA

[7] = Drug metabolism in human hepatocytes assessed as unmetabolized compound at 10 uM incubated for 120 mins by UPLC-QTOF-PDA analysis; type: ADME, cell-based, Hepatocyte; conditions: read-out: Drug metabolism
[8] = Cmax in po BID dosed rat measured on day 28; type: ADME, organism-based; design: route oral, dose 180 mg/kg; conditions: in vivo, 180 mg/kg
Cytochrome P450 2B6 = molecular target: T1, Cytochrome P450 2B6 (Homo sapiens, UniProt P20813); assay: Induction of CYP2B6 in human hepatocytes; type: ADME, cell-based, Hepatocyte
T1 sequence (P20813 whole entry): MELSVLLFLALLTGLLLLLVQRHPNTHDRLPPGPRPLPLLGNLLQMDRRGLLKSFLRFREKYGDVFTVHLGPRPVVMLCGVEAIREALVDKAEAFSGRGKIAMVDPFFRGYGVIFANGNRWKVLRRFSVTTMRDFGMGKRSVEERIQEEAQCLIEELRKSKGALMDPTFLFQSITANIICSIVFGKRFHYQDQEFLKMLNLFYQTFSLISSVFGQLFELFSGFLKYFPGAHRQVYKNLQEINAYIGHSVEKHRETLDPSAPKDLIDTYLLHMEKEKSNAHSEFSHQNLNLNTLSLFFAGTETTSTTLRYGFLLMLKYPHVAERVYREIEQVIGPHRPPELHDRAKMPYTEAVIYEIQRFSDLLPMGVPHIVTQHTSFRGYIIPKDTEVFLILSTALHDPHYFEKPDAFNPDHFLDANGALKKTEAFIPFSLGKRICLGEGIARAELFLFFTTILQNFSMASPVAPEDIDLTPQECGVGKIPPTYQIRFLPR

[9] = AUC (0 to 12 hrs) in rat po BID measured on day 28; type: ADME, organism-based; design: time < 12 hr, route oral; conditions: in vivo
[10] = Toxicity in monkey assessed as change in cardiovascular parameter; design: species or system Macaca mulatta; conditions: rhesus monkey, in vivo
[11] = Toxicity in po dosed female rat administered twice a day; type: organism-based; conditions: in vivo
[12] = Toxicity in rat assessed as decreased food assumption at 150 to 180 mg/kg, po; type: organism-based; conditions: in vivo, dose 150-180 mg/kg
[13] = AUC (0 to 24 hrs) in male cynomolgus monkey at 75 mg/kg, po BID measured on day 8; type: ADME, organism-based, Macaca fascicularis; design: time < 24 hr, route oral, dose 75 mg/kg; conditions: in vivo
[14] = Solubility of the compound in FaSSIF; type: physicochemical
[15] = Toxicity in cynomolgus monkey assessed as NOAEL at 150 mg/kg, po BID administered for 28 days; type: organism-based, Macaca fascicularis; conditions: in vivo, time 28 day
[16] = Stability in human plasma assessed as parent compound remaining measured after 6 hrs by LC-MS/MS analysis; type: ADME, cell-free; conditions: read-out: Stabilty
[17] = Chemical stability of compound in PBS buffer assessed as compound remaining at pH 7.4 at 5 uM measured after 6 hrs by LC-MS/MS analysis; type: physicochemical; conditions: read-out: Stabilty
[18] = Tmax in female cynomolgus monkey at 150 mg/kg, po BID measured on day 8; type: ADME, organism-based, Macaca fascicularis; conditions: in vivo
Cytochrome P450 2C19 = Cytochrome P450 2C19 (Homo sapiens, UniProt P33261); assay: Inhibition of CYP2C19 in human hepatocytes; type: ADME, cell-based, Hepatocyte
Cytochrome P450 2C19, sequence (P33261 whole entry): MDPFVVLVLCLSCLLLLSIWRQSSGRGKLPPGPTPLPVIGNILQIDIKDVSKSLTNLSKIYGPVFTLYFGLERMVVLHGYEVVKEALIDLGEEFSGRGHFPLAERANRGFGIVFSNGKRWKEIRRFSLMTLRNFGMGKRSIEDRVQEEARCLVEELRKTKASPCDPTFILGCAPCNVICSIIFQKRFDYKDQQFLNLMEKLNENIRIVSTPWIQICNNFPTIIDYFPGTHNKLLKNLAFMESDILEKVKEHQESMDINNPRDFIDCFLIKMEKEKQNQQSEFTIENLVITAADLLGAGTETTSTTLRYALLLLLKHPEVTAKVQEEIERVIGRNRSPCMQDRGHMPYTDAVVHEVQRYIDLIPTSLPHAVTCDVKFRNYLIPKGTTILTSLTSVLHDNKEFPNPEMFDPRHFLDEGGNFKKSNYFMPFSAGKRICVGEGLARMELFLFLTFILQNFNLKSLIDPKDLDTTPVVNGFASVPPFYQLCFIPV

Cytochrome P450 2D6 = Cytochrome P450 2D6 (Homo sapiens, UniProt P10635); assay: Inhibition of CYP2D6 in human hepatocytes; type: ADME, cell-based, Hepatocyte
Cytochrome P450 2D6, sequence (P10635 whole entry): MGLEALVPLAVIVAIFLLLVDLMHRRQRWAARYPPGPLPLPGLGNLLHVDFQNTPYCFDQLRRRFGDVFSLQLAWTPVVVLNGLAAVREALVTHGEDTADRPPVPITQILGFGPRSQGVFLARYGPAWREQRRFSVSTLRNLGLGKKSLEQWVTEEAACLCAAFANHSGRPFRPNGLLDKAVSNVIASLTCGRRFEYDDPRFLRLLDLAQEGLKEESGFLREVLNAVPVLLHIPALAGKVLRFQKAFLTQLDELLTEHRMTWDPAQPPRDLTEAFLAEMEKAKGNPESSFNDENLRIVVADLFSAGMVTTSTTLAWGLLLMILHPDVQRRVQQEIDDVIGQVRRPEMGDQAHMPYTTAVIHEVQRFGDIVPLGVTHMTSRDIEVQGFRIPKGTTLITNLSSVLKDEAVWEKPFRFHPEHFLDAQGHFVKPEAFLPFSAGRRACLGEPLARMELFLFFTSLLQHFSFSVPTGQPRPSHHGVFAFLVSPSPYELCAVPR

[19] = Oral bioavailability in male cynomolgus monkey at 825 micromol/kg; type: ADME, organism-based, Macaca fascicularis; conditions: in vivo, at 825 µmol/kg
[20] = Genotoxicity in monkey; type: toxicity, Macaca mulatta; conditions: rhesus monkey
[21] = Chemical stability of compound in simulated intestinal fluid assessed as compound remaining at 5 uM measured after 3 hrs by LC-MS/MS analysis; type: ADME, physicochemical; conditions: read-out: Stabilty
[22] = Chemical stability of compound in 0.1 N aqueous HCl buffer assessed as compound remaining at pH 1 at 5 uM measured after 1.5 hrs by LC-MS/MS analysis; type: physicochemical; conditions: pH 1, 1.5 h
[23] = Drug metabolism in Sprague-Dawley rat hepatocytes assessed as unmetabolized compound at 10 uM incubated for 120 mins by UPLC-QTOF-PDA analysis; type: ADME, cell-based, Hepatocyte; conditions: read-out: Drug metabolism
[24] = AUC (0 to 24 hrs) in male cynomolgus monkey at 15 mg/kg, iv measured on day 1; type: ADME, organism-based, Macaca fascicularis; design: time < 24 hr, route intravenous, dose 15 mg/kg; conditions: in vivo
[25] = Drug metabolism in cynomolgus monkey assessed as ratio of indoximod to parent compound at 75 to 375 mg/kg, po BID administered […]; type: ADME, organism-based, Macaca fascicularis; conditions: in vivo, dose 75-375 mg/kg
[26] = Apparent oral clearance in male cynomolgus monkey at 75 mg/kg, po BID measured on day 8; type: ADME, organism-based, Macaca fascicularis; conditions: in vivo
[27] = Lipophilicity, logD of compound; type: physicochemical; conditions: octanol/water
CYP3A4 = CYP3A4 (Homo sapiens, UniProt P08684); assay: Time dependent inhibition of CYP3A4 in human hepatocytes assessed as fold shift relative to control; type: ADME, cell-based, Hepatocyte; conditions: read-out: FC
CYP3A4, sequence (P08684 whole entry): as the sequence (P08684 whole entry) above

[28] = Drug metabolism in mouse assessed as indoximod formation by measuring indoximod Tmax at 20 to 900 mg/kg; type: ADME, organism-based; conditions: in vivo, dose 20-900 mg/kg
[29] = AUC (0 to 24 hrs) at steady state in […] at 1200 mg, BID; type: ADME; design: time < 24 hr, dose 1200 mg; conditions: in vivo
[30] = Dose normalized AUC (0 to infinity) in rat at 50 mg/kg, po measured upto 72 hrs by LC-MS/MS analysis; type: ADME, organism-based; conditions: in vivo
[31] = Cmax in human at 2400 mg administered bid; type: ADME; design: dose 2400 mg; conditions: in vivo
[32] = Change in AUC(infinity) in rat at 185 umol/kg, po measured upto 72 hrs by LC-MS/MS analysis; type: ADME, organism-based; conditions: in vivo, at 185 µmol/kg
[33] = AUC (0 to infinity) in human up to 1200 mg administered bid; type: ADME; design: time infinity, dose <=1200
[34] = Half life in female cynomolgus monkey at 225 mg/kg, po measured on day 1; type: ADME, organism-based, Macaca fascicularis; conditions: in vivo
[35] = Half life in male cynomolgus monkey at 75 mg/kg, po measured on day 1; type: ADME, organism-based, Macaca fascicularis; conditions: in vivo
[36] = Change in normalised AUC (infinity) in rat at 50 mg/kg, po measured upto 72 hrs by LC-MS/MS analysis; type: ADME, organism-based; conditions: in vivo
[37] = Oral bioavailability in rat; type: ADME, organism-based; conditions: in vivo
[38] = Cmax in po BID dosed cynomolgus monkey administered for 28 days; type: ADME, organism-based, Macaca fascicularis; design: route oral, time 28 day; conditions: in vivo
[39] = AUC (0 to infinity) in human at 2400 mg administered bid; type: ADME; design: time infinity, dose 2400 mg; conditions: in vivo
[40] = Apparent oral clearance in female cynomolgus monkey at 225 mg/kg, po measured on day 1; type: ADME, organism-based, Macaca fascicularis; conditions: in vivo

SMILES: CCOC(=O)[C@@H](Cc1cn(C)c2ccccc12)NC(=O)[C@@H](N)CC(C)C.Cl
- F [1]: 10%
- IC50 [2]: 27 µM
- Ratio [3]: 690
- remaining at 2 h, 10 µM [4]: 0.3%
- solubility [5]: 17.1 mg/mL
- Activity [6]: Non-Toxic
- IC50 (Cytochrome P450 3A4): 5 µM
- remaining at 2 h, 10 µM [7]: 0.9%
- Cmax [8]: 110 µM
- Activity (Cytochrome P450 2B6): Not Active
- AUC at 12 h [9]: 953 µM·h
- Activity [10]: Non-Toxic
- TD10 [11]: 150 mg/kg
- Activity [12]: Toxic
- AUC at 24 h [13]: 177 µM·h
- solubility [14]: 19.1 mg/mL
- NOAEL at 672 h [15]: 120 mg/kg
- remaining at 6 h [16]: 53%
- remaining at 6 h, 5 µM [17]: 92%
- Tmax [18]: 1 h
- IC50 (Cytochrome P450 2C19): 47 µM
- IC50 (Cytochrome P450 2D6): 19 µM
- F [19]: 6%
- Activity [20]: Non-Toxic
- remaining at 3 h, 5 µM [21]: 91%
- Stabilty [22]: 90%
- remaining at 2 h, 10 µM [23]: 0.4%
- AUC [24]: 0.309 µM·h
- Ratio [25]: 690
- CL/F [26]: 25.6 mL/min/kg
- logD [27]: 2.3
- IC50 shift (CYP3A4): 7
- Tmax [28]: 1 h

- AUC at 24 h [29]: 240 µM·h
- AUC/dose [30]: 1323 µM·h
- Cmax [31]: 22 µM
- Activity [32]: 0%
- AUC(0-inf) [33]: 114 µM·h
- half-life [34]: 3.8 h
- half-life [35]: 2.7 h
- Activity [36]: 0%
- bioavailability [37]: 50%
- Cmax [38]: 103 µM
- AUC(0-inf) [39]: 170 µM·h
- CL/F [40]: 82.2 mL/min/kg
SMILES: Cn1cc(C[C@@H](N)C(=O)O)c2ccccc21 [INDOXIMOD]
